Tests used:
Type in all cases: in vivo
[1] = tested on: diamondback moth (Plutella xylostella); test: Insecticidal effect on diamondback moth (Test Example 1); details: mortality judged according to the criterion shown in Test Example 1
Procedure, shortened: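 Triplicate groups of 10 insects were scored: six days after immersion of oviposited Chinese cabbage seedlings and holding at 25 °C post air-drying, hatched larvae were counted. Mortality derived from these counts and insecticidal effect judged by a set criterion.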

[2] = tested on: common cutworm (Spodoptera Litura); test: Insecticidal effect on common cutworm (Test Example 2); details: 500 ppm, cabbage leaf dip, second-instar larvae, eight days after inoculation, 25° C.
Procedure, shortened: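 After the treated material air-dries, it goes into a dish, second-instar larvae are added, and the dish is closed. Incubation runs at 25° C. On day eight, dead and living larvae are scored, and the calculated mortality is rated on an effect scale.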

[3] = tested on: rice leafroller (Cnaphalocrocis medinalis); test: Insecticidal effect on rice leafroller (Test Example 3); details: 500 ppm, rice lamina dip, third-instar larvae, four days after inoculation, 25° C., humidity 70%
Procedure, shortened: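 Insecticidal effect is judged by a predefined criterion from dead/alive counts four days after infesting air-dried lamina with third-instar larvae, kept on moistened filter paper at 25° C, 70% humidity.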

Structure (SMILES)	Insecticidal effect on diamondback moth (Test Example 1), judged grade [1]	Insecticidal effect on common cutworm (Test Example 2), judged grade [2]	Insecticidal effect on rice leafroller (Test Example 3), judged grade [3]
Cc1cc(OC(F)(F)C(F)(Cl)Cl)ccc1NC(=O)c1cccc(F)c1C(=O)NC(C)C [compound 502]	A (100)	A (100)	A (100)
Cc1cc(OC(F)(F)C(F)(F)Br)ccc1NC(=O)c1cccc(F)c1C(=O)NC(C)C [compound 503]	A (100)	B (99-90)	A (100)
CC(C)NC(=O)c1c(F)cccc1C(=O)Nc1ccc(C(F)(F)F)cc1Cl [compound 504]	A (100)	A (100)	A (100)
CC(C)NC(=O)c1c(F)cccc1C(=O)Nc1ccc(C(F)(F)C(F)(F)C(F)(F)F)cc1Cl [compound 505]	A (100)	A (100)	A (100)
CC(C)NC(=O)c1c(F)cccc1C(=O)Nc1ccc(C(F)(C(F)(F)F)C(F)(F)F)cc1Cl [compound 507]	A (100)	B (99-90)	A (100)
CC(C)NC(=O)c1c(F)cccc1C(=O)Nc1ccc(OC(F)(F)F)cc1Cl [compound 508]	A (100)	B (99-90)	A (100)
CC(C)NC(=O)c1c(F)cccc1C(=O)Nc1ccc(OC(F)(F)F)cc1Br [compound 509]	A (100)	A (100)	A (100)
Cc1cc(OC(F)(F)F)ccc1NC(=O)c1cccc(F)c1C(=O)NC(C)C [compound 510]	A (100)	B (99-90)	A (100)
Cc1cc(OC(F)(F)Br)ccc1NC(=O)c1cccc(F)c1C(=O)NC(C)C [compound 511]	A (100)	A (100)	A (100)
Cc1cc(OC(F)(F)C(F)F)ccc1NC(=O)c1cccc(F)c1C(=O)NC(C)C [compound 512]	A (100)	A (100)	A (100)
Cc1cc(OC(F)(F)C(F)Cl)ccc1NC(=O)c1cccc(F)c1C(=O)NC(C)C (stereo not drawn) [compound 513]	A (100)	A (100)	A (100)
Cc1cc(OC(F)(F)C(F)C(F)(F)F)ccc1NC(=O)c1cccc(F)c1C(=O)NC(C)C (stereo not drawn) [compound 514]	A (100)	A (100)	A (100)
Cc1cc(OC(F)(F)C(F)(Br)C(F)(F)F)ccc1NC(=O)c1cccc(F)c1C(=O)NC(C)C (stereo not drawn) [compound 516]	A (100)	A (100)	A (100)
Cc1cc(OC(F)F)c(Cl)cc1NC(=O)c1cccc(F)c1C(=O)NC(C)C [compound 517]	A (100)	A (100)	A (100)
Cc1cc(Oc2cccc(C(F)(F)F)c2)ccc1NC(=O)c1cccc(F)c1C(=O)NC(C)C [compound 519]	A (100)	A (100)	A (100)
Cc1cc(Oc2ccc(C(F)(F)F)cc2Cl)ccc1NC(=O)c1cccc(F)c1C(=O)NC(C)C [compound 521]	A (100)	A (100)	A (100)
Cc1cc(Sc2ccc(Cl)cc2)ccc1NC(=O)c1cccc(F)c1C(=O)NC(C)C [compound 522]	A (100)	D (79-50)	A (100)

Structure (SMILES)	Insecticidal effect on diamondback moth (Test Example 1), judged grade [1]	Insecticidal effect on common cutworm (Test Example 2), judged grade [2]	Insecticidal effect on rice leafroller (Test Example 3), judged grade [3]
Cc1cc(Oc2ccc(C(F)(F)F)cn2)ccc1NC(=O)c1cccc(F)c1C(=O)NC(C)C [compound 523]	A (100)	A (100)	A (100)
Cc1cc(Oc2ncc(C(F)(F)F)cc2Cl)ccc1NC(=O)c1cccc(F)c1C(=O)NC(C)C [compound 524]	A (100)	A (100)	A (100)
CC(C)NC(=O)c1c(F)cccc1C(=O)Nc1ccc(OC(F)F)cc1C(F)(F)F [compound 527]	A (100)	A (100)	A (100)
Cc1cc(Cl)ccc1NC(=O)c1ccc(F)cc1C(=O)NC(C)C [compound 529]	A (100)	D (79-50)	A (100)
Cc1cc(C(F)(F)C(F)(F)C(F)(F)F)ccc1NC(=O)c1cc(F)ccc1C(=O)NC(C)C [compound 533]	A (100)	A (100)	A (100)
CC(C)NC(=O)c1cccc(F)c1C(=O)Nc1ccc(OC(F)(F)C(F)OC(F)(F)C(F)(F)C(F)(F)F)cc1 (stereo not drawn) [compound 538]	A (100)	A (100)	A (100)
Cc1cc(I)ccc1NC(=O)c1c(F)cccc1C(=O)NC(C)C [compound 547]	A (100)	A (100)	D (79-50)
Cc1c(F)cccc1NC(=O)c1c(F)cccc1C(=O)NC(C)C [compound 548]	A (100)	A (100)	A (100)
Cc1ccc(F)cc1NC(=O)c1c(F)cccc1C(=O)NC(C)C [compound 549]	A (100)	A (100)	D (79-50)
CC(C)NC(=O)c1cccc(F)c1C(=O)Nc1ccc(C(F)(F)F)cc1Cl [compound 550]	A (100)	C (89-80)	A (100)
Cc1cc(OC(F)(F)C(F)(Cl)Cl)ccc1NC(=O)c1c(F)cccc1C(=O)NC(C)C [compound 553]	A (100)	C (89-80)	A (100)
Cc1cc(C(F)(F)C(F)(F)C(F)(F)C(F)(F)F)ccc1NC(=O)c1c(F)cccc1C(=O)NC(C)C [compound 557]	A (100)	C (89-80)	B (99-90)
Cc1c(NC(=O)c2c(F)cccc2C(=O)NC(C)C)cccc1OC(F)F [compound 558]	A (100)	A (100)	A (100)
CC(C)NC(=O)c1cccc(F)c1C(=O)Nc1ccc(C(F)(C(F)(F)F)C(F)(F)F)cc1Cl [compound 561]	A (100)	C (89-80)	A (100)
Cc1cc(OC(F)(F)C(F)Cl)ccc1NC(=O)c1c(F)cccc1C(=O)NC(C)C (stereo not drawn) [compound 567]	A (100)	D (79-50)	D (79-50)
Cc1cc(OC(F)(F)C(F)C(F)(F)F)ccc1NC(=O)c1c(F)cccc1C(=O)NC(C)C (stereo not drawn) [compound 568]	A (100)	C (89-80)	A (100)
Cc1cc(OC(F)(F)C(F)(Br)C(F)(F)F)ccc1NC(=O)c1c(F)cccc1C(=O)NC(C)C (stereo not drawn) [compound 569]	A (100)	A (100)	A (100)
